This is an account of results in publication PMC5618792, “Dynamic multicolor protein labeling in living cells” (Chemical Science, 2017).

For series [1], the target named is T1, FAST (Halorhodospira halophila, UniProt P16113, C69G/D97P/F96I/M100R/Q99S/T101G/T95M/Y94W/Y98T).
T1 construct: His-tag; made in house; host or cells: Rosetta(DE3)pLysS E. coli
Nature of the series: Affinity constants by spectrofluorometric titration of FAST with fluorogen. The series is classed as binding. Here is the method:
(§1) The UV/Vis absorption spectra were recorded with 1 cm × 1 cm quartz cuvettes (Hellma) on a diode array UV/Vis spectrophotometer (Evolution array, Thermo Scientific). The corrected fluorescence spectra upon one-photon excitation were recorded with a Photon Technology International QuantaMaster QM-1 spectrofluorimeter (PTI, Monmouth Junction, NJ) equipped with a Peltier cell holder (TLC50, Quantum Northwest, Shoreline, WA). The overall emission quantum yields after one-photon excitation φ were determined as previously described.[14]

Series [2] has as its target T1, FAST. In words: Spectroscopic properties of FAST:fluorogen complexes in PBS pH 7.4 (absorption, emission, quantum yield). The settings on record: for Brightness = ε × φ / ε, molar absorption coefficient at λ abs / φ, fluorescence quantum yield / λ abs, wavelength of maximal absorption / λ em, wavelength of maximal emission / F bound/F unbound, fluorescence activation upon FAST binding / Δλ abs = λ abs,bound – λ abs,unbound, absorption red-shift upon FAST binding: PBS pH 7.4. It counts as physicochemical. Here is the method:
as §1

Series [3] in a line: Physico-chemical properties of free fluorogens in aqueous solutions. It counts as physicochemical. Conditions: free fluorogen; for pKa: aqueous solution, read-out: pKA, acidity constant. Here is the method: as §1, with “pH measurements were performed on a standard pH meter PHM210 Radiometer Analytical (calibrated with aqueous buffers at pH 4 and 7 or 10) with a Crison 5208 Electrode (Barcelona, Spain). The UV/Vis” for “The UV/Vis”
HBR-3,5DOM in aqueous solutions. Abbreviations are as follows : pKA, acidity constant ;
λabs,neutral, wavelength of maximal absorption of the protonated state; λabs,anionic, wavelength of
maximal absorption of the anionic state.
Fluorogen pKA λabs,neutral (nm) λabs,anionic (nm)

A further series has as its system HeLa cells. In words: LIVE/DEAD viability/cytotoxicity assay. The settings on record: 5 µM, 24 h, calceinAM and EthD1. It counts as cell-based. Here is the method: The HeLa cells were treated with DMEM media containing the fluorogens at the indicated concentrations for the indicated times. The cell viability was evaluated by fluorescence microscopy using the LIVE/DEAD® viability/cytotoxicity assay kit (Molecular Probes, Life Technologies) following the manufacturer’s protocol.
Figure S2. Viability assay of HeLa cells incubated for 24 h with solutions of HBR-3,5DM, HBR-3OM and HBR-3,5DOM at 5 µM. Cell viability was tested by using calceinAM and EthD1 (LIVE/DEAD® viability/cytotoxicity assay kit). CalceinAM is a cell-permeant profluorophore cleaved by intracellular esterases releasing the green fluorescent polyanionic calcein in live cells. EthD1 (Ethidium homodimer 1) is a non cell-permeant nucleic acid red fluorescent stain that enters only cells with damaged membranes and undergoes a fluorescence enhancement upon binding to nucleic acids, thereby producing a bright red fluorescence in dead cells. Control experiments with HeLa cells non-incubated with dye (A) or incubated for 30 min with 1% hydrogen peroxyde (B) are shown. Cell fluorescence was evaluated by confocal microscopy.
3OM and HBR-3,5DOM are non-toxic for HeLa cells at the concentrations used for imaging.
(1 picture or pasted object on this page, not shown here)

Setting [4] is: FAST:fluorogen complex, listed as FAST:HBR-3OE.
Where [5] appears, read: FAST:fluorogen complex, listed as FAST:HBR-3,5DM.
Setting [6] is: FAST:fluorogen complex, listed as FAST:HBR-2,5DM.
The mark [7] stands for this setting: FAST:fluorogen complex, listed as FAST:HBR-3OM.

T1 sequence (P16113 whole entry C69G/Y94W/T95M/F96I/D97P/Y98T/Q99S/M100R/T101G): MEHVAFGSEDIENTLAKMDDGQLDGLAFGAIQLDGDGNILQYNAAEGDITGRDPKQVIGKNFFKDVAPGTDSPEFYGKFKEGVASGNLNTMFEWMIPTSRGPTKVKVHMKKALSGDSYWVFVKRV

In turn, `CCOc1cc(/C=C2\SC(=S)NC2=O)ccc1O` [HBR-3OE, (Z)-5-(3-Ethoxy-4-hydroxybenzylidene)-2-thioxothiazolidin-4-one] displayed a Kd on FAST [1] of 270 nM. Besides, at FAST [2] (FAST:fluorogen complex), the “red-shifted absorption relative to FAST:HMBR” value is given as 15–20 nm; the “red-shifted emission relative to FAST:HMBR” value is 10–20 nm; the “Brightness = ε × φ” value was determined as 7000; the “ε, molar absorption coefficient at λ abs” value is 41 mM^–1 cm^–1. Also, on FAST [2] (FAST:fluorogen complex), the “φ, fluorescence quantum yield” value is listed as 17%. For the same compound, on FAST [2] (setting [4]), the “λ abs, wavelength of maximal absorption” value stood at 497 nm and the “λ em, wavelength of maximal emission” value came to 562 nm. For the same compound, on FAST [2], the “F bound/F unbound, fluorescence activation upon FAST binding” value (from here on “F bound/F unbound”) was determined as 230 and the “Δλ abs = λ abs,bound – λ abs,unbound, absorption red-shift upon FAST binding” value stood at 94 nm.

For `COc1cc(/C=C2\SC(=S)NC2=O)cc(OC)c1O` [HBR-3,5DOM, (Z)-5-(4-Hydroxy-3,5-dimethoxybenzylidene)-2-thioxothiazolidin-4-one], on FAST [2] (FAST:fluorogen complex), the Stokes shift is recorded as 82 nm, the “red-shifted absorption relative to FAST:HMBR” value is listed as 40 nm, the “red-shifted emission relative to FAST:HMBR” value is on record as 60 nm and the “Brightness = ε × φ” value was 12 000. Moreover, on FAST [2] (FAST:fluorogen complex), the “ε, molar absorption coefficient at λ abs” value was 39 mM^–1 cm^–1; the “λ em, wavelength of maximal emission” value is given as 600 nm; the “φ, fluorescence quantum yield” value is 31%. On FAST [2], the “F bound/F unbound” value was determined as 220 and the “Δλ abs = λ abs,bound – λ abs,unbound, absorption red-shift upon FAST binding” value came out at 112 nm. Further, in series [3], the pKa stood at 8.3; the “λabs,anionic, wavelength of maximal absorption of the anionic state” value (“λabs,anionic, wavelength” below) is 484 nm; the “λabs,neutral, wavelength of maximal absorption of the protonated state” value (from here on “λabs,neutral, wavelength”) was 407 nm. Besides, in the series on HeLa cells, the “toxicity for HeLa cells (cell viability)” value is on record as “non-toxic”.

At FAST [1], `Cc1cc(/C=C2\SC(=S)NC2=O)cc(C)c1O` [HBR-3,5DM, (Z)-5-(4-Hydroxy-3,5-dimethylbenzylidene)-2-thioxothiazolidin-4-one] returned a Kd of 80 nM. In addition, on FAST [2] (FAST:fluorogen complex), the “red-shifted absorption relative to FAST:HMBR” value is reported as 15–20 nm; the “red-shifted emission relative to FAST:HMBR” value was 10–20 nm; the “Brightness = ε × φ” value is given as 23 500; the “ε, molar absorption coefficient at λ abs” value turned out to be 48 mM^–1 cm^–1. Moreover, on FAST [2] (FAST:fluorogen complex), the “φ, fluorescence quantum yield” value amounted to 49%. In addition, at FAST [2] (setting [5]), the “λ abs, wavelength of maximal absorption” value worked out at 499 nm and the “λ em, wavelength of maximal emission” value stood at 562 nm. For the same compound, at FAST [2], the “F bound/F unbound” value is on record as 660 and the “Δλ abs = λ abs,bound – λ abs,unbound, absorption red-shift upon FAST binding” value is 98 nm. For the same compound, the “overall brightness relative to the original FAST:HMBR complex” value on FAST [2] (higher than FAST:HMBR) worked out at 2.5 fold. For the same compound, in series [3], the pKa was determined as 8.7; the “λabs,anionic, wavelength” value was found to be 473 nm; the “λabs,neutral, wavelength” value is recorded as 401 nm. For the same compound, in the series on HeLa cells, the “toxicity for HeLa cells (cell viability)” value is “non-toxic”.

`Cc1cc(/C=C2\SC(=S)NC2=O)c(C)cc1O` [HBR-2,5DM, (Z)-5-(4-Hydroxy-2,5-dimethylbenzylidene)-2-thioxo-1,3-thiazolidin-4-one] yielded a Kd at FAST [1] of 8 nM. Also, on FAST [2] (FAST:fluorogen complex), the “red-shifted absorption relative to FAST:HMBR” value was 15–20 nm; the “red-shifted emission relative to FAST:HMBR” value was 10–20 nm; the “Brightness = ε × φ” value is 14 500; the “ε, molar absorption coefficient at λ abs” value is 50 mM^–1 cm^–1. Moreover, at FAST [2] (FAST:fluorogen complex), the “φ, fluorescence quantum yield” value amounted to 29%. In addition, on FAST [2] (setting [6]), the “λ abs, wavelength of maximal absorption” value came to 494 nm and the “λ em, wavelength of maximal emission” value is 552 nm. Besides, at FAST [2], the “F bound/F unbound” value is reported as 430 and the “Δλ abs = λ abs,bound – λ abs,unbound, absorption red-shift upon FAST binding” value is reported as 88 nm. Moreover, in series [3], the pKa was determined as 8.7; the “λabs,anionic, wavelength” value is 472 nm; the “λabs,neutral, wavelength” value came out at 406 nm.

With `CCc1cc(/C=C2\SC(=S)NC2=O)ccc1O` [HBR-3E, (Z)-5-(3-Ethyl-4-hydroxybenzylidene)-2-thioxothiazolidin-4-one], binding at FAST [1] was put at a Kd of 80 nM. Further, on FAST [2] (FAST:fluorogen complex), the “Brightness = ε × φ” value is 6500; the “ε, molar absorption coefficient at λ abs” value was determined as 50 mM^–1 cm^–1; the “λ abs, wavelength of maximal absorption” value is reported as 481 nm; the “λ em, wavelength of maximal emission” value amounted to 543 nm. Also, on FAST [2] (FAST:fluorogen complex), the “φ, fluorescence quantum yield” value was found to be 13%. Further, at FAST [2], the “F bound/F unbound” value was found to be 300 and the “Δλ abs = λ abs,bound – λ abs,unbound, absorption red-shift upon FAST binding” value stood at 81 nm.

As to `COc1cc(/C=C2\SC(=S)NC2=O)ccc1O` [HBR-3OM, (Z)-5-(4-Hydroxy-3-methoxybenzylidene)-2-thioxo-1,3-thiazolidin-4-one], the affinity on FAST [1], expressed as Kd, was 310 nM. On FAST [2] (FAST:fluorogen complex), the “red-shifted absorption relative to FAST:HMBR” value is reported as 15–20 nm; the “red-shifted emission relative to FAST:HMBR” value is given as 10–20 nm; the “Brightness = ε × φ” value is 14 400; the “ε, molar absorption coefficient at λ abs” value was determined as 40 mM^–1 cm^–1. Further, on FAST [2] (FAST:fluorogen complex), the “φ, fluorescence quantum yield” value is reported as 36%. In addition, at FAST [2] (setting [7]), the “λ abs, wavelength of maximal absorption” value was determined as 494 nm and the “λ em, wavelength of maximal emission” value is given as 561 nm. Further, at FAST [2], the “F bound/F unbound” value worked out at 350 and the “Δλ abs = λ abs,bound – λ abs,unbound, absorption red-shift upon FAST binding” value was 91 nm. Besides, in series [3], the pKa is 8.3; the “λabs,anionic, wavelength” value stood at 468 nm; the “λabs,neutral, wavelength” value came out at 403 nm. For the same compound, the “toxicity for HeLa cells (cell viability)” value in the series with HeLa cells is “non-toxic”.

As for `Cc1cc(C=C2SC(=S)NC2=O)ccc1O` [HMBR, 4-hydroxy-3-methylbenzylidene rhodanine, reference compound], on FAST [2] (FAST:fluorogen complex), the “Brightness = ε × φ” value is listed as 10 300 and the “ε, molar absorption coefficient at λ abs” value turned out to be 45 mM^–1 cm^–1. Moreover, the “F bound/F unbound” value at FAST [2] is given as 300. Further, in series [3], the pKa stood at 8.7; the “λabs,anionic, wavelength” value was 461 nm; the “λabs,neutral, wavelength” value is 401 nm.
